Earlier results in paper PMC9321963 (Birth Defects Research, 2022).

Key:
pregnant rats = details: ref Mey, Babiuk, Clugston, Zhang, & Greer, [2003]; cited from earlier work
rats = details: ref Food and Drug Administration, Duvelisib Label, [2018]; cited from earlier work
rabbits = details: ref Food and Drug Administration, Duvelisib Label, [2018]; cited from earlier work

Compound | anomalies in offspring after administration to pregnant rats (pregnant rats) | developmental toxicity (rats) | developmental toxicity (rabbits)
O=C(O)c1ccc(-c2ccccc2)cc1 [4‐biphenyl carboxylic acid] | congenital anomalies in the offspring, including CDH defects | – | –
C[C@H](Nc1ncnc2[nH]cnc12)c1cc2cccc(Cl)c2c(=O)n1-c1ccccc1 [Duvelisib] | – | developmental toxicant causing fetal losses and malformations | developmental toxicant causing fetal losses and malformations
O=C(NCCCCCCCCNC(=O)C(Cl)Cl)C(Cl)Cl [bisdiamine, N,N‐octamethylenebis (dichloroacetamide)] | congenital anomalies in the offspring, including CDH defects | – | –
O=[N+]([O-])c1ccc(Oc2ccc(Cl)cc2Cl)cc1 [nitrofen, 2,4‐dichlorophenyl‐p‐nitrophenyl ether] | congenital anomalies in the offspring, including CDH defects | – | –
